Results as given in patent publication US10316323B2, “Microorganisms engineered to use unconventional sources of nitrogen” (priority 2013, dated 2019).

Test system: cyanamide
Assay: Utilization of cyanamide in rich YPD medium by S. cerevisiae strains
Assay type: cell-based
Settings: 10 mM cyanamide in YPD medium
Experimental: Optical density of NS100 and NS101 grown in rich YPD medium with 100 μg/mL hydgromycin and with and without 10 mM cyanamide. NS100 and NS101 were grown overnight in YNB medium, and inoculated at 3.33% v/v. […] Data are averages of 3 replicate wells in a 96 well plate; 150 μL per well. 30° C., YPD medium or YPD medium with 10 mM cyanamide. Inoculation was with 5 μL of culture pregrown for 24 hrs in the YNB medium with urea as nitrogen source.

SMILES: N#CN [cyanamide]
- effect of cyanamide on microbial growth: act as a deterrent for microbial growth
